Measurements from patent US20110129917A1, “CELL ISOLATION METHOD” (priority 2007, published 2011).

System: microorganisms in soil
Assay: effect of cell enlargers upon microorganisms in rice paddy soil, observed under a fluorescent microscope after CFDA-AM staining
Format: cell-based
Conditions: three cell enlargers added together: nalidixic acid 80 μg/g of soil, pipemidic acid 40 μg/g, piromidic acid 40 μg/g; anaerobic, 30° C., 24 hours; comparison without enlargers showed only round or oval cells
Protocol: As a laboratory model of rice paddy soil where denitrification is active, a 10 mL vial bottle was filled with slightly less than 10 mL of soil (rice paddy soil from Tanashi Farm of the University of Tokyo), a selective substrate of denitrificans (sodium succinate, approximately 5 g/L) and sodium nitrate (approximately 5 g/L) and the gas phase was completely substituted with argon-acetylene. Culture was then carried out anaerobically at 30° C. […] A fluorescent dye CFDA-AM (final concentration 50 μM) was added to the cultured product and the product was observed under a fluorescent microscope (excited in blue, irradiated with blue light) (FIG. 3(b)). In combination, as a comparative example, the fluorescent dye was added and observation was carried out under a microscope with no cell enlargers added (FIG. 3(a)).

Structure (SMILES): CCn1cc(C(=O)O)c(=O)c2cnc(N3CCNCC3)nc21 [pipemidic acid]
- effect of cell enlargers upon microorganisms in soil (cell shape and size under the microscope): elongated and larger cells were also observable

Structure (SMILES): CCn1cc(C(=O)O)c(=O)c2cnc(N3CCCC3)nc21 [piromidic acid]
- effect of cell enlargers upon microorganisms in soil (cell shape and size under the microscope): elongated and larger cells were also observable
